Assay results from PubChem BioAssay AID330 (DTP/NCI, 2004).
Values joined by “and” are separate entries in the source; they are usually repeats but may differ in a detail not shown here. Equal entries are not always repeated. Toxic doses and inconclusive results are not listed. How the source made its calls: active means survival T/C of 150% or more; inactive means T/C below 125% in these data.

Tested on: P388 leukemia ip, CD2F1 mice, survival T/C
Test: NCI In Vivo Anticancer Drug Screen. Data for tumor model P388 Leukemia (intraperitoneal) in CD2F1 (CDF1) mice
Conditions: endpoint: median survival time, higher = longer survival
In short: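 Mice carrying the transplanted tumor received test compound or vehicle. Survival was recorded in each group, and the value is the treated-group measurement divided by that of the vehicle-treated control group.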

[1] = dose: 50.0 mg/kg/injection, schedule: Q01DX005 (ip), vehicle: Klucel (hydroxypropylcellulose) (HPC)
[2] = dose: 50.0 mg/kg/injection, schedule: Q01DX009 (ip), vehicle: Klucel (hydroxypropylcellulose) (HPC)
[3] = dose: 100.0 mg/kg/injection, schedule: Q01DX009 (ip), vehicle: Klucel (hydroxypropylcellulose) (HPC)
[4] = dose: 200.0 mg/kg/injection, schedule: Q01DX009 (ip), vehicle: Klucel (hydroxypropylcellulose) (HPC)
[5] = dose: 50.0 mg/kg/injection, schedule: Q01DX005 (ip), vehicle: saline with Tween-80
[6] = dose: 100.0 mg/kg/injection, schedule: Q01DX005 (ip), vehicle: saline with Tween-80
[7] = dose: 100.0 mg/kg/injection, schedule: Q04DX002 (ip), vehicle: Klucel (hydroxypropylcellulose) (HPC)
[8] = dose: 200.0 mg/kg/injection, schedule: Q04DX002 (ip), vehicle: Klucel (hydroxypropylcellulose) (HPC)
[9] = dose: 12.5 mg/kg/injection, schedule: Q01DX009 (ip), vehicle: water
[10] = dose: 50.0 mg/kg/injection, schedule: Q01DX009 (ip), vehicle: saline with Tween-80
[11] = dose: 100.0 mg/kg/injection, schedule: Q01DX009 (ip), vehicle: saline with Tween-80
[12] = dose: 60.0 mg/kg/injection, schedule: Q01DX005 (ip), vehicle: saline with Tween-80
[13] = dose: 200.0 mg/kg/injection, schedule: Q01DX005 (ip), vehicle: saline with Tween-80
[14] = dose: 100.0 mg/kg/injection, schedule: Q04DX003 (ip), vehicle: Klucel (hydroxypropylcellulose) (HPC)
[15] = dose: 200.0 mg/kg/injection, schedule: Q04DX003 (ip), vehicle: Klucel (hydroxypropylcellulose) (HPC)
[16] = dose: 400.0 mg/kg/injection, schedule: Q04DX003 (ip), vehicle: Klucel (hydroxypropylcellulose) (HPC)
[17] = dose: 200.0 mg/kg/injection, schedule: Q01DX009 (ip), vehicle: saline with Tween-80

Measured: T/C

O=C1c2ccccc2C(=O)c2c1nc1sccn21
inactive: dose: 3.12 mg/kg/injection, schedule: Q01DX005 (ip), vehicle: Klucel (hydroxypropylcellulose) (HPC) 104 % of control | dose: 6.25 mg/kg/injection, schedule: Q01DX005 (ip), vehicle: Klucel (hydroxypropylcellulose) (HPC) 108 % of control | dose: 12.5 mg/kg/injection, schedule: Q01DX005 (ip), vehicle: Klucel (hydroxypropylcellulose) (HPC) 102 % of control and 104 % of control | [1] 105 % of control

COc1ccc(-c2c(S(C)(=O)=O)nsc2S(C)(=O)=O)cc1
inactive: [2] 105 % of control | [3] 106 % of control | [4] 97 % of control

Cc1onc(-c2c(Cl)cccc2Cl)c1C(=O)SC1=NC(C)N2C(SC(=O)c3c(-c4c(Cl)cccc4Cl)noc3C)=NC(C)N12 (configuration not stated)
inactive: [5] 90 % of control | [6] 87 % of control

COc1ccc(NS(=O)(=O)c2ccc(NCc3c4ccccc4nc4ccccc34)cc2)nn1
inactive: dose: 12.5 mg/kg/injection, schedule: Q04DX002 (ip), vehicle: Klucel (hydroxypropylcellulose) (HPC) 96 % of control | dose: 25.0 mg/kg/injection, schedule: Q04DX002 (ip), vehicle: Klucel (hydroxypropylcellulose) (HPC) 99 % of control | dose: 50.0 mg/kg/injection, schedule: Q04DX002 (ip), vehicle: Klucel (hydroxypropylcellulose) (HPC) 89 % of control | [7] 87 % of control | [8] 91 % of control | dose: 400.0 mg/kg/injection, schedule: Q04DX002 (ip), vehicle: Klucel (hydroxypropylcellulose) (HPC) 93 % of control

COC1/C=C\C=C(/C)C(=O)NC2=CC(=O)C=C(C2=O)C(OC)C(C)CC(OC)C(OC)C(C)/C=C(/C)C1OC(N)=O (configuration not stated)
inactive: dose: 3.0 mg/kg/injection, schedule: Q01DX009 (ip), vehicle: Klucel (hydroxypropylcellulose) (HPC) 92 % of control | dose: 6.0 mg/kg/injection, schedule: Q01DX009 (ip), vehicle: Klucel (hydroxypropylcellulose) (HPC) 101 % of control

O=C(O)/C=N/NS(=O)(=O)c1cccc(S(=O)(=O)N/N=C/C(=O)O)c1
inactive: [9] 119 % of control

CC(C)n1c(=O)nc(-c2ccccc2)c2cc3c(cc21)OCO3
inactive: [2] 106 % of control | [3] 108 % of control | [4] 91 % of control

CN(S(=O)(=O)CC(F)(F)F)S(=O)(=O)C(F)(F)F
inactive: dose: 1.56 mg/kg/injection, schedule: Q01DX009 (ip), vehicle: saline 120 % of control | dose: 2.05 mg/kg/injection, schedule: Q01DX009 (ip), vehicle: saline 93 % of control and 97 % of control | dose: 3.12 mg/kg/injection, schedule: Q01DX009 (ip), vehicle: saline 101 % of control and 102 % of control | dose: 4.68 mg/kg/injection, schedule: Q01DX009 (ip), vehicle: saline 102 % of control and 111 % of control | dose: 6.25 mg/kg/injection, schedule: Q01DX009 (ip), vehicle: saline 100 % of control

O=[N+]([O-])CC(OCCCCCCO)C(Cl)(Cl)Cl (configuration not stated)
inactive: [10] 100 % of control | [11] 95 % of control

NC(=S)Nc1cccc2ccccc12
inactive: dose: 6.25 mg/kg/injection, schedule: Q01DX009 (ip), vehicle: saline with Tween-80 100 % of control and 112 % of control | dose: 12.5 mg/kg/injection, schedule: Q01DX009 (ip), vehicle: saline with Tween-80 113 % of control and 94 % of control | dose: 25.0 mg/kg/injection, schedule: Q01DX009 (ip), vehicle: saline with Tween-80 104 % of control and 91 % of control | [10] 94 % of control

O=C1C2CCSCN2C(=O)N1c1ccccc1 (configuration not stated)
inactive: [12] 95 % of control | dose: 120.0 mg/kg/injection, schedule: Q01DX005 (ip), vehicle: saline with Tween-80 103 % of control | dose: 240.0 mg/kg/injection, schedule: Q01DX005 (ip), vehicle: saline with Tween-80 95 % of control

Cc1ccc(CCNC(=O)c2c3nc4c(C(=O)NCCc5ccc(C)cc5)cccc4oc-3cc(=O)c2N)cc1
inactive: [5] 93 % of control | [6] 87 % of control | [13] 100 % of control

Cc1ccc(S(=O)(=O)N/N=C/c2cccc([N+](=O)[O-])c2O)cc1
inactive: [5] 101 % of control | [6] 104 % of control | [13] 93 % of control

O=C1OCCOCCOCCOCCOC(=O)C1c1ccccc1
inactive: [14] 101 % of control | [15] 101 % of control | [16] 101 % of control

Cc1cc2nc(CC(=O)c3ccc4ccccc4c3)c(=O)[nH]c2cc1C
inactive: dose: 15.0 mg/kg/injection, schedule: Q01DX005 (ip), vehicle: saline with Tween-80 91 % of control | dose: 30.0 mg/kg/injection, schedule: Q01DX005 (ip), vehicle: saline with Tween-80 91 % of control | [12] 90 % of control

NN1C(=O)CCC1=O
inactive: [10] 94 % of control | [11] 97 % of control | [17] 92 % of control

O=C(O)c1ccc(N2N=C3C(=CC(=O)c4ccccc43)SCC2=O)cc1
inactive: dose: 12.5 mg/kg/injection, schedule: Q01DX005 (ip), vehicle: saline + Tween-80 + alcohol 97 % of control | dose: 25.0 mg/kg/injection, schedule: Q01DX005 (ip), vehicle: saline + Tween-80 + alcohol 112 % of control

CCSc1nc(C=O)c(Cc2ccc(Br)cc2)c(=O)[nH]1
inactive: dose: 100.0 mg/kg/injection, schedule: Q04DX003 (ip), vehicle: saline with Tween-80 110 % of control | dose: 200.0 mg/kg/injection, schedule: Q04DX003 (ip), vehicle: saline with Tween-80 107 % of control | dose: 400.0 mg/kg/injection, schedule: Q04DX003 (ip), vehicle: saline with Tween-80 88 % of control

C=C(C)C(Br)=C(C)C
inactive: dose: 12.5 mg/kg/injection, schedule: Q01DX001 (ip), vehicle: saline with Tween-80 108 % of control | dose: 25.0 mg/kg/injection, schedule: Q01DX001 (ip), vehicle: saline with Tween-80 107 % of control | dose: 50.0 mg/kg/injection, schedule: Q01DX001 (ip), vehicle: saline with Tween-80 99 % of control

NNC(=O)Cc1cc(=O)[nH][nH]1
inactive: [3] 101 % of control | [4] 100 % of control | dose: 400.0 mg/kg/injection, schedule: Q01DX009 (ip), vehicle: Klucel (hydroxypropylcellulose) (HPC) 108 % of control

Oc1ccccc1C=Nc1ccc2c(ccc3c4ccccc4ccc23)c1
inactive: [1] 111 % of control | dose: 100.0 mg/kg/injection, schedule: Q01DX005 (ip), vehicle: Klucel (hydroxypropylcellulose) (HPC) 102 % of control | dose: 200.0 mg/kg/injection, schedule: Q01DX005 (ip), vehicle: Klucel (hydroxypropylcellulose) (HPC) 116 % of control

COC(=O)C(Cc1ccc(O)cc1)NS(=O)(=O)Cc1ccccc1 (configuration not stated)
inactive: [10] 107 % of control | [11] 96 % of control | [17] 99 % of control

Cc1ccc2[nH]c3c(c2c1)-c1ncncc1CC3
inactive: [7] 104 % of control | [8] 92 % of control

Oc1ccc2c(c1)Cc1cc3ccccc3nc1-2
inactive: dose: 25.0 mg/kg/injection, schedule: Q01DX009 (ip), vehicle: Klucel (hydroxypropylcellulose) (HPC) 101 % of control | [2] 98 % of control | [3] 94 % of control | [4] 103 % of control

CC(=O)C1CC2CN(C(=O)OCC(Cl)(Cl)Cl)C1C=C2c1ccccc1 (configuration not stated)
inactive: dose: 100.0 mg/kg/injection, schedule: Q04DX002 (ip), vehicle: saline 91 % of control | dose: 200.0 mg/kg/injection, schedule: Q04DX002 (ip), vehicle: saline 94 % of control | dose: 400.0 mg/kg/injection, schedule: Q04DX002 (ip), vehicle: saline 94 % of control

COc1cc2cc(c1Cl)N(C)C(=O)/C=C/C1(C)OC1C(C)C1CC(O)(NC(=O)O1)C(OC)/C=C/C=C(\C)C2OC (configuration not stated)
inactive: dose: 4.0 micrograms/kg/injection, schedule: Q01DX009 (ip), vehicle: distilled water + alcohol 103 % of control | dose: 8.0 micrograms/kg/injection, schedule: Q01DX009 (ip), vehicle: distilled water + alcohol 100 % of control | dose: 64.0 micrograms/kg/injection, schedule: Q01DX009 (ip), vehicle: distilled water + alcohol 99 % of control | dose: 128.0 micrograms/kg/injection, schedule: Q01DX009 (ip), vehicle: distilled water + alcohol 91 % of control

Cc1cc(C)[s+]s1
inactive: [9] 109 % of control | dose: 25.0 mg/kg/injection, schedule: Q01DX009 (ip), vehicle: water 109 % of control | dose: 50.0 mg/kg/injection, schedule: Q01DX009 (ip), vehicle: water 115 % of control | dose: 100.0 mg/kg/injection, schedule: Q01DX009 (ip), vehicle: water 117 % of control

FC12CCC(c3ccccc3)(CC1)CC2
inactive: [14] 98 % of control | [15] 100 % of control | [16] 103 % of control
